Seven sequences from patent US20210163552A1, “PEPTIDE FOR INDUCING REGENERATION OF TISSUE, AND USE THEREOF” (SHIONOGI & CO., LTD., priority 2017, published 2021) can be followed below.

Where no end group is shown, it is not given here.

Data set [1] has as its system murine bone marrow-derived stromal cell line ST2. The data set can be described thus: Measurements of cell-migration activity (Example 2). The note with it: ST2 cells, peptide at 10 μM, cultured overnight, score from photographed images. More on the design: key: five levels of scores (−, ±, +, ++, +++); five levels of scores (−, ±, +, ++, +++); five levels of scores (−, ±, +, ++, +++); five levels of scores (−, ±, +, ++, +++); five levels of scores (−, ±, +, ++, +++). It counts as cell-based. The method, then:
Cells of murine bone marrow-derived stromal cell line ST2 (RCB0224, RIKEN BioResource Research Center) were removed from a dish using TrypLE Express (Thermo Fisher Scientific), and collected by centrifugation at 25° C. and 1,500 rpm for 5 minutes. The cell pellets were prepared into a concentration of 7×10^5 cells/mL with RPMI 1640/10% FBS/1% PenStrep (Gibco), and seeded at 70 μL/insert well on a 24-well plate set with a culture insert (Nippon Genetics Co., Ltd.). After 24 hours, the culture insert was taken out, and the cells were washed once with RPMI 1640. Each of the peptide samples (a peptide of position 2 to position 44 of human HMGB1 (2-44), and the five kinds of modified peptides Peptide-1 to -5 prepared in Example 1), each prepared at 10 μM with an assay medium (RPMI 1640/0.1% FBS) was added in an amount of 550 μL, and the cells were further cultured overnight. As a negative control (NC), only the assay medium was added. After the culture, the cells were fixed, stained with DiffQuik, and photographed. The degree of cell migration of each group from the photographed images was evaluated with five levels of scores (−, ±, +, ++, +++). In addition, each of the peptide samples was subjected to three test runs under the same conditions.

Data set [2] can be described thus: Stability of peptides in plasma (Example 6). It is filed as in vitro ADME. To be noted: rat plasma on ice, assay concentration 5 μg/mL; for stability in rat plasma compared to 2-44 / stability in rat plasma, Peptide-3 and Peptide-6 compared with each other: 30 and 60 minutes (FIG. 3). How it is done:
A 5 mL tube previously charged with 60 μL of a 10% EDTA-2K was charged with 3 mL of whole blood collected from Crl: CD (SD) rats, and the contents were allowed to stand at room temperature for 30 minutes, and then centrifuged at 4° C. and at 3,000 rpm (1600×g) for 10 minutes. The supernatant was collected to be used as a blank plasma. The plasma obtained was stored on ice and only used on the day of the stability test.
Each of the peptide at position 2 to position 44 of human HMGB1 (2-44), the modified peptide prepared in Example 1 (Peptide-3), and the modified peptide prepared in Example 4 (Peptide-6) was prepared into a solution at 375 μg/mL with distilled water from a stock solution in which each peptide was dissolved in a 0.1% aqueous TFA solution at 1 mg/mL. Eight microliters of the solution was added to 592 μL of the blank plasma to prepare a sample for the stability test (assay concentration: 5 μg/mL). The sample for stability test was allowed to stand on ice, and 50 μL was collected immediately after the addition, and 30 and 60 minutes after the addition. To 50 μL of the collected sample were added 250 μL of 270 mmol/L citric acid solution/130 mmol/L EDTA-2K aqueous solution (4:1, v/v), and 50 μL of a 0.1% aqueous TFA solution, and mixed. To the mixture was added 350 μL of methanol and mixed, and further 100 μL of acetonitrile was added thereto and mixed, and the mixture was once frozen with dry ice. After 5 to 60 minutes, the frozen sample was thawed at room temperature, and the supernatant obtained by centrifugation at 4° C. and at 14,000×g for 3 minutes was collected in an amount of 400 μL, dried and solidified with a centrifugal concentrator (Spin Dryer Light VC-36R, manufactured by TAITEC CORPORATION), and dissolved in 200 μL of a 1% TFA/2% ACN Buffer, and filtrated with a filter (0.22 μm) to obtain samples for the measurement.
The samples for the measurement were introduced into high-performance liquid chromatograph-single quadrupolar mass spectrometer to detect the monitor ions peculiar to each of the peptides. From separately prepared samples of which concentrations were known, a calibration curve was drawn in a concentration range of from 0.1 to 10 μg/mL, and an inverse regression was obtained from peak areas of chromatograms obtained by measurements of each sample to obtain a peptide concentration in the samples. For the peptide concentration at each time point, a remaining rate (%) which was calculated by defining one immediately after the addition as 100 was plotted against the time after the addition (FIG. 3).

For “MGKGDPKKPRGKMSSYAFFVQTCREEHKKKHPDASVNFSEFSKP (MGKGDPKKPRGKMSSYAFFVQTCREEHKKKHPDASVNFSEFSKP) [Peptide-1]”, in data set [1], the “degree of cell migration, 1st Run” value is given as “+++”; the “degree of cell migration, 2nd Run” value is “+”; the “degree of cell migration, 3rd Run” value is “+++”.
Consider “MGKGDPKKPRGKMSSYAFFVQTCREEHKKKHPDASVNFSEFSKE (MGKGDPKKPRGKMSSYAFFVQTCREEHKKKHPDASVNFSEFSKE) [Peptide-5]”, for which, in data set [1], the “degree of cell migration, 1st Run” value is “++”; the “degree of cell migration, 2nd Run” value is listed as “++”; the “degree of cell migration, 3rd Run” value is given as “++”.
As for “MGKGDPKKPRGKMSSYAFFVQTCREEHKKKHPDASVNFSEFSKA (MGKGDPKKPRGKMSSYAFFVQTCREEHKKKHPDASVNFSEFSKA) [Peptide-4]”, in data set [1], the “degree of cell migration, 1st Run” value is recorded as “++”; the “degree of cell migration, 2nd Run” value is “+”; the “degree of cell migration, 3rd Run” value is given as “+++”.
Consider “GKGDPKKPRGKMSSYAFFVQTCREEHKKKHPDASVNFSEFSKK [Peptide 2-44, GKGDPKKPR GKMSSYAFFVQTCREEHKKKHPDASVNFSEFSKK, reference compound]”, for which, in data set [2] (30 minutes after the addition), the “peptide concentration in the stability test sample (quantifiable lower limit)” value is at most 0.5 µg/mL.
Regarding “GKGDPKKPRGKMSSYAFFVQTCREEHKKKHPDASVNFSEFSPP [Peptide-6, GKGDPKKPR GKMSSYAFFVQTCREEHKKKHPDASVNFSEFSPP]”, in data set [2], the “stability in rat plasma compared to 2-44” value is on record as “stable as compared to 2-44”; the “stability in rat plasma, Peptide-3 and Peptide-6 compared with each other” value was “of the same level”.
“MGKGDPKKPRGKMSSYAFFVQTCREEHKKKHPDASVNFSEFSPK (MGKGDPKKPRGKMSSYAFFVQTCREEHKKKHPDASVNFSEFSPK) [Peptide-2]”: in data set [1], the “degree of cell migration, 1st Run” value is “+++”; the “degree of cell migration, 2nd Run” value was “++”; the “degree of cell migration, 3rd Run” value is “+++”.
Regarding “MGKGDPKKPRGKMSSYAFFVQTCREEHKKKHPDASVNFSEFSPP [Peptide-3, MGKGDPKKPRGKMSSYAFFVQTCREEHKKKHPDASVNFSEFSPP]”, in data set [2], the “stability in rat plasma compared to 2-44” value is listed as “stable as compared to 2-44”; the “stability in rat plasma, Peptide-3 and Peptide-6 compared with each other” value was “of the same level”.
